From patent US12681006B2, “Methods of generating human endometrial stromal fibroblasts and three-dimensional multi-layered human endometrial tissue compositions” (Northwestern University, priority 2021, dated 2026)
Values joined by “and” are separate entries in the source; they are usually repeats but may differ in a detail not shown here. Identical values can stand only once.

Columns and labels:
Format in all cases: cell-based, human
Hedgehog signaling = assay: Inhibition of Hedgehog signaling in PSC-ESF/EEO co-cultures with cyclopamine, qPCR
Description: FIG. 12a-FIG. 12d. […] Related to FIG. 5 a. Schematic of treatment paradigm for inhibition of Hedgehog signaling. Co-cultures were cultured in vehicle treatment media with either 10 uM cyclopamine (+) or vehicle (EtOH, −). After 48 h co-cultures were harvested for RNA and qPCR analysis. b. Gene expression of direct downstream mediators of IHH signaling: GLI1 and GLI2. […] (d12 v.−ns p-value=0.0953; −v.+ns p-value−v.+p-value=0.2661). c. […] (Lachman, A., 2010; ENCODE Project Consortium, 2011) d. Top 10 pathways enriched in decidualized co-cultured PSC-ESF over decidualized monolayer ESF as analyzed by the integrated Bioplanet 2019 platform. Both enrichment analyses done using Enrichr with a 2-fold cutoff ((http://amp.pharm.mssm.edu/Enrichr/).
BMP2, a member of the TGF B family, is necessary for decidualization (FIG. 5d). BMP2 in ESF can be activated by hormone treatments, such as P4 and cAMP, which directly increase BMP2 expression to mediate decidualization in hESF (Lee et al., 2007). In the mouse, stromal BMP2 is further amplified indirectly by P4 activated IHH from the luminal epithelium (Lee et al., 2007). Increased stromal BMP2 subsequently mediates decidualization by activating WNT (WNT4) signaling, FK506-binding proteins (FKBP5), and prostaglandin (PTGS1) (Li et al., 2013). To examine the hormone mediated activation of IHH signaling in co-cultured PSC-ESF, we analyzed expression of IHH and BMP signaling targets after decidualization. […] HOXA10, a mediator of stromal hormone response, was not increased by co-culture. However, it trended towards an increase after hormone treatment, though without statistical significance (FIG. 5e). Importantly, we observed that BMP2 and BMP2 signaling targets (WNT4, FKBP5, and PTGS1) also were increased in expression in response to co-culture, while BMP2, FKBP5, and PTGS1 were further increased by hormone treatment (FIG. 5e).
(§1) qRT-PCR: RNA Isolation was performed using the RNAqueous-Micro Total RNA Isolation Kit (ThermoFisher Scientific #AM1931) following manufacturer's instructions. DNAse treatment and reverse transcription were performed using SuperScript IV VILO Master Mix with ezDNase Enzyme (ThermoFisher Scientific #11766050) following manufacturer's instructions. Quantitative PCR was performed using SYBR Green PCR Master Mix (ThermoFisher Scientific #4312704) using the QuantStudio 7. ESC and iPSC differentiated cells were used for analysis. A list of primers can be found in Table 1.

[1] = test system: pluripotent stem cells (PSC); assay: Differentiation of PSC to intermediate mesoderm with CHIR99021, marker expression by qPCR/ICC
Excerpt: Generation of ESF from pluripotent stem cells (PSC) involves sequential differentiation of the cells through a series of intermediate progenitor cells species (FIG. 6). The first step (FIG. 1a) requires the specification of intermediate mesoderm (IM), a common mesodermal progenitor for both nephric and reproductive tracts (Yucer et al., 2017). […] We observed high levels of mesodermal-specific Brachyury (TBXT) gene expression, and concurrent reduction of pluripotency markers OCT3/4 and SOX2 in 2 days (FIG. 1b, d). LHX1 and PAX2, two transcription factors expressed in the intermediate mesoderm (IM), also were detected at this time (FIG. 1c, d). […] At day 4 of differentiation, TBXT expression was decreased, LHX1 and PAX2 expression was either maintained or increased, and expression of anti-Müllerian hormone receptor 2 (AMHR2), a specific marker of Müllerian duct mesenchyme, increased (FIG. 1b, c, e).
(§2) Monolayer Cell Culture and Differentiation: Both embryonic (H7) and iPS (reprogrammed from Coriell fibroblast GM03651 by Sendai virus (ThermoFisher #A16517) following manufacturer's instruction) cells lines of female origin (XX) were used for differentiation as well as co-culture. Cells were cultured in mTeSR1 media (STEMCELL Technologies #85875) and on Corning Matrigel hESC-Qualified Matrix (Corning™ #354277) coated tissue culture plastic plates. Lot specific dilution factor volume provided by the manufacturer is diluted into 24 mL of cold DMEM/F12 (ThermoFisher Scientific #11320-082). To coat: 1 mL of this solution is applied to 1 well of a 6 well plate (9.6 cm^2) and incubated at RT for 1 hr or 37 C for 30 min. To differentiate, PSC were dissociated to single-cell level using Accutase (EMD Millipore #SCR005). Once at single cell level, equal volume mTeSR1 was added to stop dissociation and cells were pelleted at 0.2e3 rcf for 5 min. Supernatant was discarded and the remaining pellet of PSC was resuspended in mTeSR1 and 10 μM Y27632 (Reprocell #04-0012-02) and plated onto Corning Matrigel hESC-Qualified Matrix coated tissue culture plates at 3×10^5 per 3.8 cm^2 or equivalent density. Media is replaced with Differentiation Basal Media (Advanced RPMI 1640 (Gibco #12633020), 1× Gluatmax (Gibco #35050061) and […] CHIR99021 (STEMCELL Technologies #72054). After 4 days, the media is changed to Differentiation Basal Media containing 100 ng/mL recombinant Human WNT7A (R&D Systems #3008-WN-025). The final differentiation treatment media was Differentiation Basal Media with 10 ng/mL Recombinant Human BMP2 (R&D Systems #355-BM010), and 10 nM β-estradiol (E2, Millipore Sigma #E2758-250MG). While it varies by cell line, the expected yield at day 12 off differentiation when starting with 3×10^5 stem cells is 0.6×10^6-13.2×10^6 PSC-ESF.
as §1
Immunocytochemistry: Monolayer cultures: cells cultured on Matrigel coated coverslips were washed with 1×DPBS (Corning #21031CV) before fixing the cells using 4% Formaldehyde solution (Millipore Sigma #P6148) for 20 min at room temperature. After 20 min, cells are washed 3 times with 1×DPBS. Prior to staining, cells were blocked for 1 hr at RT in PBS (Fisher Scientific #AM9625), 0.1% BSA (Millipore Sigma #A7906), 0.25% Triton-X (Millipore Sigma #T8787), and 10% Normal Goat Serum (Jackson Immuno Research #005-000-121). Primary Antibodies were diluted into the same buffer for incubation at 4° C. overnight. […]

[2] = test system: PSC derived cells, day 4 of differentiation; assay: WNT7A treatment day 4-8 to expand Müllerian duct mesenchyme (PSC-ESP), marker expression by qPCR/ICC
Description: To preferentially expand the Müllerian duct mesenchyme population, at day 4 we continued activating the WNT/B-catenin pathway with WNT7A (100 ng/ml) treatment from day 4-8. […] The Müllerian duct is patterned along the anterior-posterior axis to develop into the fallopian tubes (HOXA9), endometrium (HOXA10 and HOXA11), cervix (HOXA11), and vagina (HOXA13) (Du and Taylor, 2015). […] Immunocytochemical (ICC) analyses validated the qPCR results with increasing nuclear expression of the HOXA11 transcription factor from day 0 to day 8 (FIG. 1g). The expression of mesenchymal lineage markers platelet derived growth factor beta (PDGFRβ) and vimentin (VIM) supported specification to the stromal cell type (FIG. 1h). HOXA11 was confirmed to be co-expressed with mesenchymal markers AMHR2 and VIM (FIG. 1h, i). […] Further, 93.31+1.46% of the cells were Ki67^+, confirming that the cells at day 8 are in cell cycle (FIG. 1i, j). PSC-ESP at day 8 of differentiation could be frozen and thawed for subsequent differentiation, generating cells with appropriate proliferative properties and lineage-specific marker expression (FIG. 7f, g). In toto, these findings indicate that developmentally and regionally appropriate endometrial stromal progenitors, which we termed PSC-ESP, were generated at this point of the differentiation protocol.
as §2
as §1, with “1. […]” for “1.”

[3] = 10 uM cyclopamine, 48 h, vs vehicle (EtOH)
[4] = day 8, after CHIR99021 day 0-4 and WNT7A day 4-8, ICC

## CC1=C2C[C@H]3[C@@H](CC=C4C[C@@H](O)CC[C@@]43C)[C@@H]2CC[C@]12O[C@@H]1C[C@H](C)CN[C@H]1[C@H]2C [cyclopamine]
Hedgehog signaling; [3]
  GLI1 gene expression: significantly downregulated
  GLI2 gene expression: similarly regulated without statistical significance
Hedgehog signaling; cyclopamine 48 hr, co-culture
  BMP2 expression: trended towards a reduction
  HOXA10 expression: significant reduction
  NR2F2 expression: significant reduction

## Cc1c[nH]c(-c2cnc(NCCNc3ccc(C#N)cn3)nc2-c2ccc(Cl)cc2Cl)n1 [CHIR99021]
[1]; 8 μM CHIR99021, day 2
  LHX1 and PAX2 (intermediate mesoderm transcription factors) expression: detected
[1]; 8 μM CHIR99021, day 2 vs day 0, qPCR
  mesodermal-specific Brachyury (TBXT) gene expression: high levels
[1]; 8 μM CHIR99021, day 4 of differentiation
  expression of AMHR2, marker of Müllerian duct mesenchyme: increased
[1]; 8 μM CHIR99021, in 2 days, qPCR/ICC
  pluripotency markers OCT3/4 and SOX2: reduction
[1]; 8 μM CHIR99021, qPCR
  expression of endoderm and mesendoderm marker SOX17: low but significant increase
[1]; CHIR99021 treatment of PSC
  cell expansion of treated PSC: rapid expansion of cells
[1]; day 4, ESC, both concentrations of CHIR99021
  LHX1 and PAX2 induction, comparison of concentrations of CHIR99021: highly, but differently induced

B1: WNT7A: recombinant Human WNT7A (R&D Systems), used as second Wnt/β-catenin agonist (protein, UniProt O00755 32-349, looked up)
Protein Wnt-7a: LGASIICNKIPGLAPRQRAICQSRPDAIIVIGEGSQMGLDECQFQFRNGRWNCSALGERTVFGKELKVGSREAAFTYAIIAAGVAHAITAACTQGNLSDCGCDKEKQGQYHRDEGWKWGGCSADIRYGIGFAKVFVDAREIKQNARTLMNLHNNEAGRKILEENMKLECKCHGVSGSCTTKTCWTTLPQFRELGYVLKDKYNEAVHVEPVRASRNKRPTFLKIKKPLSYRKPMDTDLVYIEKSPNYCEEDPVTGSVGTQGRACNKTAPQASGCDLMCCGRGYNTHQYARVWQCNCKFHWCCYVKCNTCSERTEMYTCK
[2]; 100 ng/mL WNT7A day 4 to day 8, only in the 8 uM CHIR99021 condition
  expression of endometrium specific genes HOXA10 and HOXA11: only induced high expression
[2]; 100 ng/ml WNT7A, day 4-8, qPCR
  Müllerian mesenchyme specific AMHR2 expression: further induced
  epithelium specific marker WNT7A expression: did not induce
[2]; 100 ng/ml WNT7A, day 8 of differentiation, qPCR
  HOXA10 and HOXA11 expression: significantly upregulated
[2]; WNT7A day 4 through 8, d4 vs d8, qPCR
  HOXA9 (fallopian tube) and HOXA13 (vagina) expression: not significantly upregulated
[2]; [4]
  DAPI+ cells expressing both AMHR2 and HOXA11: 78.55+8.17% and 78.5%
  DAPI+ cells positive for HOXA11: 92.27+5.15% and 92.3%
  cells Ki67+: 93.31+1.46% and 93.3%
